Usually solubility stands for the concentration that dissolves in the medium under given conditions.

For data set [1] the following is noted: unmodified C60-fullerene; cited from earlier work.
Data set [2] is described as follows: Cationite capacity. In kind it is physicochemical.
Data set [3] relates to heart muscle tissue (rat myocardium) under hypoxia. The data set is classed as in vivo. The procedure: Same tests were also performed in inhalation hypoxia model specified below (FIG. 14-16).
The following in vivo experimental hypoxia models were employed:
(1) Medicinal hypoxia syndrome A (1-methylnicotineamide (MNA), 10-20 mg/kg i.v. once per 24 hrs); […] (2) Medicinal hypoxia syndrome B (DXR 60-80 mg/kg i.v. once per 24 hrs); (3) The oxygen depleted inhalation model (10-20 day long exposition of rats to the artificial gas mixture to breath with, 12-16% oxygen/84-88% nitrogen, v/v).
Male adult Wistar Albino Glaxo rats (180-220 gms) were used, 3-4 animals per each experimental point.

Data set [4] relates to heart muscle mitochondria membranes. In words: Retention of the drug by heart muscle mitochondria membranes after a single i.v. injection. In kind it is in vivo.

Values after ≈ are worked out from the molar mass of the structure shown.

Take `c12c3c4c5c1c1c6c7c2c2c8c3c3c9c4c4c%10c5c5c1c1c6c6c%11c7c2c2c7c8c3c3c8c9c4c4c9c%10c5c5c1c1c6c6c%11c2c2c7c3c3c8c4c4c9c5c1c1c6c2c3c41` [C60-fullerene]: the solubility in data set [1] was 1.3e-05 ng/mL (≈ 1.8e-05 nM).

Turning to “fullerene (C60)-2-(butadiene-1-yl)tetra(o-γ-aminobutyryl-o-phtalyl)ferroporphyrin [PMC16]”, the cationite capacities in data set [2] was 320-370 meqv/mmol. Also, the “protecting the heart muscle tissue from the damaging impact promoted by hypoxia” value in data set [3] (hypoxia of any sort, even at extra low doses) is “efficient”. In addition, the “safety of long term multiple administration of extra low doses” value in data set [3] (in vivo) was “totally safe”. The “effect in medicinal hypoxic cardiotoxicity cases (DXR, MNA)” value in data set [3] (long term multiple administration, extra low doses) was “marked prophylactic and therapeutic effect”. The “time the drug molecule is retained by heart muscle mitochondria membranes” value in data set [4] is “not less than a week”.

Source of the values: patent publication US20080317876A1, “USE OF A MAGNESIUM ISOTOPE FOR TREATING HYPOXIA AND A MEDICAMENT COMPRISING THE SAME” (priority 2007, published 2008).
